Assay results published in patent publication US12139492B2 (Endotarget Inc., priority 2021, dated 2024).
Like-named read-outs stand apart in the source and are kept apart here.

Key:
Mino cells = assay: Antiproliferative effect, MTS cell viability assay, Mino cells; format: cell-based; conditions: Homo sapiens, MINO, Mino mantle cell lymphoma cells; read-out: IC50 (anti-proliferation) Mino cells
Summary of the method: (§1)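 Cells were exposed to compound at 0, 0.001, 0.01, 0.1, 1 and 10 μM for 72 h. Viability was then measured by MTS assay, reading formazan produced by metabolically active cells as absorbance at 490 nm.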

JeKo-1 cells = assay: Antiproliferative effect, MTS cell viability assay, JeKo-1 cells; format: cell-based; conditions: Homo sapiens; JeKo-1 mantle cell lymphoma cells; read-out: IC50 (anti-proliferation) JeKO-1 cells
Summary of the method: as §1

BTK = BTK (Homo sapiens, UniProt Q06187); assay: Degradation of BTK protein in Namalwa cells (Western blot; DC50, Dmax); conditions: for DC50: cell line not given
[1] = read-out: DC50 (BTK degradation), concentration giving 50% reduction of BTK expression level
[2] = read-out: Dmax (BTK degradation)

Sequence of BTK (Q06187 whole entry): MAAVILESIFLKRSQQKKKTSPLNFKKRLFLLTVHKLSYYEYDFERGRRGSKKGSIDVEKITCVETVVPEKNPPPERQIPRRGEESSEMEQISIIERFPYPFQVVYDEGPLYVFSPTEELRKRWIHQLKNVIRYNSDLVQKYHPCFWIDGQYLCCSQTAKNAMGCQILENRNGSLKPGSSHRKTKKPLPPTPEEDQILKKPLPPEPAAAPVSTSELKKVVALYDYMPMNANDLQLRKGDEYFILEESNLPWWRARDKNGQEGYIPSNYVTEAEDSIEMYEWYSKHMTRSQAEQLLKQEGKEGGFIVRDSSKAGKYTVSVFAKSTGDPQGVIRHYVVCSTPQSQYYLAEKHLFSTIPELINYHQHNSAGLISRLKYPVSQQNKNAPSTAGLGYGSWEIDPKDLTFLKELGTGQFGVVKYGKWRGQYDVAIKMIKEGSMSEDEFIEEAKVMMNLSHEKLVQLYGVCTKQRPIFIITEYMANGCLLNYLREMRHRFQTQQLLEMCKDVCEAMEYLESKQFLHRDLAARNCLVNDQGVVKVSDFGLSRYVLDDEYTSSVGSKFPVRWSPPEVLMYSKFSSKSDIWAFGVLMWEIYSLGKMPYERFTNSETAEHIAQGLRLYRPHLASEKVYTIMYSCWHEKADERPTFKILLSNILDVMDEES

Compound	IC50 (Mino cells) [nM]	IC50 (JeKo-1 cells) [µM]	Dmax (BTK) [%]	DC50 (BTK; BTK degradation) [nM]	DC50 (BTK; [1]) [nM]	Dmax (BTK; [2]) [%]
NC(=O)c1c(-c2ccc(Oc3ccccc3)cc2)nn2c1NCC[C@H]2C1CCN(C2CCN(C(=O)N3CCC(CN4CCN(c5ccc6c(c5)CN(C5CCC(=O)NC5=O)C6=O)CC4)CC3)CC2)CC1 (stereo partly drawn) [Compound 390, (7S)-7-(1′-(4-((4-(2-(2,6-dioxopiperidin-3-yl)-1-oxoisoindolin-5-yl)piperazin-1-yl)methyl)piperidine-1-carbonyl)-[1,4′-bipiperidin]-4-yl)-2-(4-phenoxyphenyl)-4,5,6,7-tetrahydropyrazolo[1,5-a]pyrimidine-3-carboxamide]	1000 to 10000	> 10	> 90	10 to 50	–	–
NC(=O)c1c(-c2ccc(Oc3ccccc3)cc2)nn2c1NCC[C@H]2C1CCN(C2CCN(C(=O)N3CCN(CC4CCN(c5ccc6c(c5)C(=O)N(C5CCC(=O)NC5=O)C6=O)CC4)CC3)CC2)CC1 (stereo partly drawn) [Compound 391, (7S)-7-(1′-(4-((1-(2-(2,6-dioxopiperidin-3-yl)-1,3-dioxoisoindolin-5-yl)piperidin-4-yl)methyl)piperazine-1-carbonyl)-[1,4′-bipiperidin]-4-yl)-2-(4-phenoxyphenyl)-4,5,6,7-tetrahydropyrazolo[1,5-a]pyrimidine-3-carboxamide]	> 10000	> 10	> 75	10 to 50	–	–
NC(=O)c1c(-c2ccc(Oc3ccccc3)cc2)nn2c1NCC[C@H]2C1CCN(C2CCN(C(=O)N3CCN(CC4CCN(c5ccc6c(c5)CN(C5CCC(=O)NC5=O)C6=O)CC4)CC3)CC2)CC1 (stereo partly drawn) [Compound 392, (7S)-7-(1′-(4-((1-(2-(2,6-dioxopiperidin-3-yl)-1-oxoisoindolin-5-yl)piperidin-4-yl)methyl)piperazine-1-carbonyl)-[1,4′-bipiperidin]-4-yl)-2-(4-phenoxyphenyl)-4,5,6,7-tetrahydropyrazolo[1,5-a]pyrimidine-3-carboxamide]	< 1000	1 to 10	> 90	10 to 50	–	–
NC(=O)c1c(-c2ccc(Oc3ccccc3)cc2)nn2c1NCC[C@H]2C1CCN(C2CCN(C(=O)N3CCC(CC4CCN(c5ccc6c(c5)C(=O)N(C5CCC(=O)NC5=O)C6=O)CC4)CC3)CC2)CC1 (stereo partly drawn) [Compound 393, (7S)-7-(1′-(4-((1-(2-(2,6-dioxopiperidin-3-yl)-1,3-dioxoisoindolin-5-yl)piperidin-4-yl)methyl)piperidine-1-carbonyl)-[1,4′-bipiperidin]-4-yl)-2-(4-phenoxyphenyl)-4,5,6,7-tetrahydropyrazolo[1,5-a]pyrimidine-3-carboxamide]	1000 to 10000	1 to 10	–	–	10 to 50	> 75
NC(=O)c1c(-c2ccc(Oc3ccccc3)cc2)nn2c1NCC[C@H]2C1CCN(C2CCN(C(=O)N3CCC(CC4CCN(c5ccc6c(c5)CN(C5CCC(=O)NC5=O)C6=O)CC4)CC3)CC2)CC1 (stereo partly drawn) [Compound 394, (7S)-7-(1′-(4-((1-(2-(2,6-dioxopiperidin-3-yl)-1-oxoisoindolin-5-yl)piperidin-4-yl)methyl)piperidine-1-carbonyl)-[1,4′-bipiperidin]-4-yl)-2-(4-phenoxyphenyl)-4,5,6,7-tetrahydropyrazolo[1,5-a]pyrimidine-3-carboxamide]	< 1000	1 to 10	–	–	10 to 50	> 75
NC(=O)c1c(-c2ccc(Oc3ccccc3)cc2)nn2c1NCC[C@H]2C1CCN(C2CCN(C(=O)N3CCC(CN4CCC(c5ccc6c(c5)C(=O)N(C5CCC(=O)NC5=O)C6=O)CC4)CC3)CC2)CC1 (stereo partly drawn) [Compound 395, (7S)-7-(1′-(4-((4-(2-(2,6-dioxopiperidin-3-yl)-1,3-dioxoisoindolin-5-yl)piperidin-1-yl)methyl)piperidine-1-carbonyl)-[1,4′-bipiperidin]-4-yl)-2-(4-phenoxyphenyl)-4,5,6,7-tetrahydropyrazolo[1,5-a]pyrimidine-3-carboxamide]	1000 to 10000	1 to 10	–	–	10 to 50	> 75
